Measured values published in patent US6906059B2, “Pharmaceutical composition with protective action against oxidative/toxic substances, especially cardiotoxic substances” (Solvay Pharmaceuticals, priority 1999, dated 2005).

Assays:
[1] = tested on: rabbits with adriamycin-induced cardiomyopathy; assay: Reduction of adriamycin-induced cardiac remodelling processes in the rabbit heart (heart/body weight ratio, hydroxyproline content); type: in vivo; conditions: for Ratio of heart weights to body weight: X ± SEM, n = 8
Description: • A) The tests were carried out on rabbits of both sexes having an initial body weight of 2.1±0.2 kg. The animals were divided into 3 groups:
1. untreated animals (=control animals, n=20);
2. animals treated with adriamycin (+placebo instead of test substance, n=8);
3. animals treated with adriamycin and test substance (n=8). • The test substance used was (3S,2R′)-3-{1-[2′-(ethoxycarbonyl)-4′-phenyl-butyl]-cyclopentane-1-carbonylamino}-2,3,4,5-tetrahydro-2-oxo-1H-1-benzazepin-1-acetic acid, which is representative of the substances of Formula I usable according to the invention.
Groups 2 and 3 were administered 1 mg/kg adriamycin i.v. twice a week for 4 weeks. Group 3 of rabbits having adriamycin-induced cardiomyopathy was administered a daily oral dose of the test substance (30 mg/kg body weight) for 4 weeks, starting on the first day of adriamycin treatment, with their food. Once the 4 weeks had ended, the hearts were isolated and weighed. Then they were fixed with formalin for later biochemical investigations (hydroxyproline content of the heart tissue, measured with the HPLC amino acid analysis after Blankenship, D. T. et al., Aunal. Biochem. 178, 227-232, 1989 and Schuster, R., J. Chromatogr. 431, 271 -284, 1989). Both the increase in heart weight in relation to body weight and the hydroxyproline content in the heart tissue compared with normal values are indicators of remodelling processes taking place in the heart.

[2] = tested on: rats with adriamycin-induced cardiomyopathy; assay: Inhibition of the pro-oxidative action of adriamycin in rats (plasma α-tocopherol, lipid peroxides, ferroxidase activity); type: in vivo, male Wistar rats; conditions: for Ferroxidase activity in plasma / Lipid peroxides (measured as malonic dialdehyde thiobarbituric acid adducts) in plasma / α-Tocopherol (Vitamin E) in plasma: X ± SEM
Description: The left-ventricular myocardial hydroxyproline concentration, which is a measurement of cardiac fibrous tissue growth, was less in the animals treated with test substance (group 3) than in the control animals treated with adriamycin (group 2). […] If the test substance was also administered in addition to adriamycin (group 3), the adriamycin-induced increase in the hydroxyproline content could be reduced by about 13% compared with animals treated with placebo (group 2). […] The animals were divided into 4 groups:
1. untreated animals (=control animals, n=19);
2. animals treated with adriamycin (+placebo instead of test substance, n=14);
3. animals treated with test substance (n=11);
4. animals treated with adriamycin and test substance (n=14).
The test substance used was (3S,2R′)-3-{1-[2′-(ethoxycarbonyl)-4′-phenyl-butyl]-cyclopentane-1-carbonylamino}-2,3,4,5-tetrahydro-2-oxo-1H-1-benzazepin-1-acetic acid, being representative of the substances of Formula I usable according to the invention.
The animals of groups 2 and 4 were administered 15 mg/kg adriamycin intraperitoneally over a period of two weeks. The animals of group 4 were administered 30 mg/kg of the test substance daily for two weeks with their food, starting with the first day of adriamycin treatment. The animals of group 3 were likewise administered 30 mg/kg of the test substance daily for two weeks with their food (but without adriamycin).
Once the two-weeks' treatment had ended, the animals were anaesthetised with pentobarbital (50 mg/kg i.p.) and venous blood samples were taken, from which plasma was obtained. The concentration of lipid-peroxides and the ferroxidase activity in the plasma was measured using the methods of Wong, S. H. Y. et al., Clin. Chem. 33, 214-220, 1987 or Johnson, D. A. et al., Clin. Chem. 13, 142-150, 1967. Furthermore, the α-tocopherol concentration in the plasma was measured using the method of Catignani, G. L. and Bieri, J. G., Clin. Chem. 29, 708-712, 1983.

[3] = adriamycin + test substance 30 mg/kg daily oral v. adriamycin + placebo, 4 weeks
[4] = Group 3: test substance 30 mg/kg daily with food for two weeks, no adriamycin, n = 11
[5] = Group 4: adriamycin 15 mg/kg i.p. + test substance 30 mg/kg daily, two weeks, n = 14
[6] = adriamycin + test substance v. adriamycin + placebo
[7] = group 4 v. group 2 (adriamycin + placebo)
[8] = test substance alone v. untreated
[9] = group 2 (adriamycin) v. group 1 (untreated)
[10] = Group 2: adriamycin 15 mg/kg i.p. over two weeks + placebo, n = 14
[11] = group 2 (adriamycin) v. group 1 (control)

CCOC(=O)[C@H](CCc1ccccc1)CC1(C(=O)N[C@H]2CCc3ccccc3N(CC(=O)O)C2=O)CCCC1 [test substance, (3S,2R′)-3-{1-[2′-(ethoxycarbonyl)-4′-phenyl-butyl]-cyclopentane-1-carbonylamino}-2,3,4,5-tetrahydro-2-oxo-1H-1-benzazepin-1-acetic acid]
Ratio of heart weights to body weight ([1]; Group 3: adriamycin 1 mg/kg i.v. twice a week + test substance 30 mg/kg daily oral, 4 weeks): 2.79 ± 0.08 g/kg
% Effect of the test substance (group 3 v. 2) on hydroxyproline content of the heart [1, 3]: −13.3%
% Effect of the test substance (group 3 v. 2) on ratio of heart weights to body weight [1, 3]: −17.7%
Reduction of the adriamycin-induced increase in the heart/body weight ratio ([1]; group 3 v. group 2 (placebo)): about 18%
Reduction of the adriamycin-induced increase in the hydroxyproline content ([1]; group 3 v. group 2 (placebo)): about 13%
Ferroxidase activity in plasma [2, 4]: 0.2545 ± 0.0104 IU/l
Lipid peroxides (measured as malonic dialdehyde thiobarbituric acid adducts) in plasma [2, 4]: 2.319 ± 0.086 µmol/L
α-Tocopherol (Vitamin E) in plasma [2, 4]: 657.8 ± 21.0 µg/dL
Ferroxidase activity in plasma [2, 5]: 0.2534 ± 0.0128^+ IU/l
Lipid peroxides (measured as malonic dialdehyde thiobarbituric acid adducts) in plasma [2, 5]: 3.030 ± 0.235^+++ μmol/l
α-Tocopherol (Vitamin E) in plasma [2, 5]: 407.9 ± 33.0 µg/dL
% Effect of the test substance on plasma ferroxidase activity, Group 4 v. 2 [2, 6]: −23.0%
% Effect of the test substance on plasma lipid peroxides, Group 4 v. 2 [2, 6]: −32.3%
% Effect of the test substance on plasma α-tocopherol, Group 4 v. 2 [2, 6]: +20.6%
Increase of α-tocopherol content in the plasma ([2]; group 3 (test substance) v. group 1 (control)): about 95%
Increase of α-tocopherol content in the plasma ([2]; group 4 (adriamycin + test substance) v. group 2 (adriamycin + placebo)): about 21%
Decrease of ferroxidase activity [2, 7]: 23%
Reduction of the adriamycin-induced increase in the concentration of lipid peroxides in the plasma [2, 7]: about 32%
% Effect of the test substance on plasma ferroxidase activity, Group 3 v. 1 [2, 8]: −5.7%
% Effect of the test substance on plasma lipid peroxides, Group 3 v. 1 [2, 8]: +19.6%
% Effect of the test substance on plasma α-tocopherol, Group 3 v. 1 [2, 8]: +95.2%

COc1cccc2c1C(=O)c1c(O)c3c(c(O)c1C2=O)C[C@@](O)(C(=O)CO)C[C@@H]3O[C@H]1C[C@H](N)[C@H](O)[C@H](C)O1 [adriamycin, reference compound]
Ratio of heart weights to body weight ([1]; Group 2: adriamycin 1 mg/kg i.v. twice a week for 4 weeks + placebo): 3.39 ± 0.13 g/kg
Increase of heart/body weight ratio compared with untreated control group [1, 9]: about 69%
Increase of myocardial hydroxyproline content compared with untreated control group [1, 9]: about 60%
Lipid peroxides (measured as malonic dialdehyde thiobarbituric acid adducts) in plasma [2, 10]: 4.476 ± 0.404 µmol/L
α-Tocopherol (Vitamin E) in plasma [2, 10]: 338.2 ± 28.0 µg/dL
Increase of concentration of lipid peroxides in the rat plasma [2, 11]: about 131%
Increase of total activity of the ferroxidase in the rat plasma [2, 11]: about 22%
